Results taken from publication PMC10825133, “Repurposing proteasome inhibitors for improved treatment of triple-negative breast cancer” (Cell Death Discovery, 2024).
Like-named read-outs stand apart in the source and are kept apart here.

Legend:
[1] = tested on: BT-549 cells; test: Resazurin-based cell viability assay, monotherapy drug screen; set-up: species or system human; AUC: scale not given here; conditions: for AUC: area under the dose response curve, 24 h; for GRmax: drug efficacy at highest tested dose (<0 cytotoxic, 0 cytostatic, >0 partial growth inhibition)
Procedure, shortened: (§1)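 Cells were seeded at the highest density (tested 1000-16000 cells/well) giving linear growth between days 1 and 3, keeping them in exponential phase over the ~52 h experiment. Viability was read after 4 h at 37 °C with 0.2 mg/ml resazurin added at 10% of medium volume; ex 560/em 615 nm.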

[2] = tested on: HCC1806 cells; test: as above; set-up: species or system human; AUC: scale not given here; conditions: for AUC: area under the dose response curve, 24 h; for GRmax: drug efficacy at highest tested dose (<0 cytotoxic, 0 cytostatic, >0 partial growth inhibition)
Procedure, shortened: as §1

[3] = tested on: HCC38 cells; test: as above; set-up: species or system human; AUC: scale not given here; conditions: for AUC: area under the dose response curve, 24 h; for GRmax: drug efficacy at highest tested dose (<0 cytotoxic, 0 cytostatic, >0 partial growth inhibition)
Procedure, shortened: as §1

[4] = tested on: HCC70 cells; test: as above; set-up: species or system human; AUC: scale not given here; conditions: for AUC: area under the dose response curve, 24 h; for GRmax: drug efficacy at highest tested dose (<0 cytotoxic, 0 cytostatic, >0 partial growth inhibition)
Procedure, shortened: as §1

[5] = tested on: MCF-10A cells; test: as above; set-up: species or system human; AUC: scale not given here; conditions: for AUC: area under the dose response curve
Procedure, shortened: as §1

[6] = tested on: MCF-7 cells; test: as above; set-up: species or system human; AUC: scale not given here; conditions: for AUC: area under the dose response curve, 24 h; for GRmax: drug efficacy at highest tested dose (<0 cytotoxic, 0 cytostatic, >0 partial growth inhibition)
Procedure, shortened: as §1

[7] = tested on: MDA-MB-436 cells; test: as above; set-up: species or system human; AUC: scale not given here; conditions: for AUC: area under the dose response curve, 24 h; for GRmax: drug efficacy at highest tested dose (<0 cytotoxic, 0 cytostatic, >0 partial growth inhibition)
Procedure, shortened: as §1

[8] = tested on: MDA-MB-453 cells; test: as above; set-up: species or system human; AUC: scale not given here; conditions: for AUC: area under the dose response curve, 24 h
Procedure, shortened: as §1

[9] = tested on: MDA-MB-468 cells; test: as above; set-up: species or system human; AUC: scale not given here; conditions: for AUC: area under the dose response curve, 24 h
Procedure, shortened: as §1

[10] = tested on: eight TNBC cell lines (BT-549, CAL-148, HCC1806, HCC38, HCC70, MDA-MB-436, MDA-MB-453, MDA-MB-468); test: Monotherapy drug screen, mean across the TNBC cell lines; conditions: for area under the dose response curve (AUC), mean ± SD / cytotoxic effect at the highest dose: TNBC cell lines; for cytotoxic effect at the highest dose: by GRmax
Procedure, shortened: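 Cells seeded at 4.0 × 10^3–7.5 × 10^3/well, grown 24 h, then drug-treated 24 h with matched solvent-vehicle controls per concentration; resazurin absorbance read-out, viability normalised to vehicle after background subtraction, t = 0 untreated cells for GR. AUC, IC50, GR50, GRmax via GRmetrics; combinations predicted by IDACombo, synergy scored with SynergyFinder.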

Molecule CC(C)C[C@H](NC(=O)[C@H](Cc1ccccc1)NC(=O)c1cnccn1)B(O)O [Bortezomib] has an AUC ([1]; BT-549) of 0.66, a GRmax ([1]; BT-549) of 0.39 and an IC50 ([1]; Homo sapiens, BT-549, growth rate inhibition concentration at GR(c) = 0.5, 24 h, read-out: GR50 (the source's name)) of 0.1 µM. The AUC ([2]; HCC1806) was 0.70, the GRmax ([2]; HCC1806) was 0.33 and the IC50 ([2]; Homo sapiens, HCC1806, 24 h drug treatment, read-out: IC50) was 0.79 µM. The IC50 ([2]; Homo sapiens, HCC1806, growth rate inhibition concentration at GR(c) = 0.5, 24 h, read-out: GR50 (the source's name)) was 0.38 µM, the AUC ([3]; HCC38) was 0.40 and the GRmax ([3]; HCC38) was −0.99. For the same molecule, the IC50 ([3]; Homo sapiens, HCC38, 24 h drug treatment, read-out: IC50) was 0.024 µM, the IC50 ([3]; Homo sapiens, HCC38, growth rate inhibition concentration at GR(c) = 0.5, 24 h, read-out: GR50 (the source's name)) was 0.01 µM and the AUC ([4]; HCC70) was 0.68. It also gave a GRmax ([4]; HCC70) of −0.55, an IC50 ([4]; Homo sapiens, HCC70, 24 h drug treatment, read-out: IC50) of 0.81 µM and an IC50 ([4]; Homo sapiens, HCC70, growth rate inhibition concentration at GR(c) = 0.5, 24 h, read-out: GR50 (the source's name)) of 0.1 µM. For the same molecule, the IC50 ([5]; Homo sapiens, 24 h drug treatment, read-out: IC50) was 0.046 µM, the IC50 ([5]; Homo sapiens, growth rate inhibition concentration at GR(c) = 0.5, 24 h, read-out: GR50 (the source's name)) was 0.012 µM and the AUC ([5]; 24 h) was 0.59. For the same molecule, the IC50 ([6]; Homo sapiens, MCF7, MCF-7, growth rate inhibition concentration at GR(c) = 0.5, 24 h, read-out: GR50 (the source's name)) was 0.031 µM, the AUC ([6]; MCF-7) was 0.78 and the GRmax ([6]; MCF-7) was −0.43. It also gave an IC50 ([7]; Homo sapiens, MDA-MB-436, growth rate inhibition concentration at GR(c) = 0.5, 24 h, read-out: GR50 (the source's name)) of 0.021 µM, an AUC ([7]; MDA-MB-436) of 0.75 and a GRmax ([7]; MDA-MB-436) of −0.76. The IC50 ([8]; Homo sapiens, MDA-MB-453, growth rate inhibition concentration at GR(c) = 0.5, 24 h, read-out: GR50 (the source's name)) was 0.063 µM, the AUC ([8]; MDA-MB-453) was 0.75 and the IC50 ([9]; Homo sapiens, MDA-MB-468, 24 h drug treatment, read-out: IC50) was 0.054 µM. The IC50 ([9]; Homo sapiens, MDA-MB-468, growth rate inhibition concentration at GR(c) = 0.5, 24 h, read-out: GR50 (the source's name)) was 0.017 µM, the AUC ([9]; MDA-MB-468) was 0.57 and the IC50 ([10]; Homo sapiens, 24 h, read-out: GR50 (mean ± SD)) was 100 ± 110 nM. The “area under the dose response curve (AUC), mean ± SD” value ([10]; 24 h) was 0.66 ± 0.10.
With [NH2][Pt]1([NH2])[O]CC(=O)[O]1 [Nedaplatin] the IC50 ([1]; BT-549, 24 h drug treatment, read-out: IC50) was 0.15 µM, the AUC ([1]; BT-549) was 0.66 and the GRmax ([1]; BT-549) was −0.02. For the same molecule, the IC50 ([1]; BT-549, growth rate inhibition concentration at GR(c) = 0.5, 24 h, read-out: GR50 (the source's name)) was 0.081 µM, the IC50 ([2]; HCC1806, 24 h drug treatment, read-out: IC50) was 0.15 µM and the AUC ([2]; HCC1806) was 0.66. For the same molecule, the GRmax ([2]; HCC1806) was −0.38, the IC50 ([2]; HCC1806, growth rate inhibition concentration at GR(c) = 0.5, 24 h, read-out: GR50 (the source's name)) was 0.12 µM and the IC50 ([3]; HCC38, 24 h drug treatment, read-out: IC50) was 0.093 µM. For the same molecule, the AUC ([3]; HCC38) was 0.62, the GRmax ([3]; HCC38) was −0.58 and the IC50 ([3]; HCC38, growth rate inhibition concentration at GR(c) = 0.5, 24 h, read-out: GR50 (the source's name)) was 0.054 µM. It also gave an IC50 ([4]; HCC70, 24 h drug treatment, read-out: IC50) of 0.046 µM, an AUC ([4]; HCC70) of 0.50 and a GRmax ([4]; HCC70) of −0.83. It also gave an IC50 ([4]; HCC70, growth rate inhibition concentration at GR(c) = 0.5, 24 h, read-out: GR50 (the source's name)) of 0.3 µM, an IC50 ([5]; 24 h drug treatment, read-out: IC50) of 0.075 µM and an AUC ([5]; 24 h) of 0.57. It also gave a GRmax ([5]; drug efficacy at highest tested dose (<0 cytotoxic, 0 cytostatic, >0 partial growth inhibition)) of −0.40, an IC50 ([5]; growth rate inhibition concentration at GR(c) = 0.5, 24 h, read-out: GR50 (the source's name)) of 0.074 µM and an AUC ([6]; MCF-7) of 0.82. For the same molecule, the GRmax ([6]; MCF-7) was −0.57, the IC50 ([6]; MCF-7, growth rate inhibition concentration at GR(c) = 0.5, 24 h, read-out: GR50 (the source's name)) was 0.075 µM and the IC50 ([7]; MDA-MB-436, 24 h drug treatment, read-out: IC50) was 0.23 µM. For the same molecule, the AUC ([7]; MDA-MB-436) was 0.76, the GRmax ([7]; MDA-MB-436) was 0.22 and the IC50 ([7]; MDA-MB-436, growth rate inhibition concentration at GR(c) = 0.5, 24 h, read-out: GR50 (the source's name)) was 0.13 µM. It also gave an AUC ([8]; MDA-MB-453) of 0.86, a GRmax ([8]; MDA-MB-453, drug efficacy at highest tested dose (<0 cytotoxic, 0 cytostatic, >0 partial growth inhibition)) of 0.34 and an IC50 ([8]; MDA-MB-453, growth rate inhibition concentration at GR(c) = 0.5, 24 h, read-out: GR50 (the source's name)) of 0.41 µM. For the same molecule, the IC50 ([9]; MDA-MB-468, 24 h drug treatment, read-out: IC50) was 0.067 µM, the AUC ([9]; MDA-MB-468) was 0.61 and the GRmax ([9]; MDA-MB-468, drug efficacy at highest tested dose (<0 cytotoxic, 0 cytostatic, >0 partial growth inhibition)) was −0.38. The “area under the dose response curve (AUC), mean ± SD” value ([10]; 24 h) was 0.68 ± 0.10 and the “cytotoxic effect at the highest dose” value [10] was “cytotoxic”.
Work on CC1=C(O)C(=O)C=C2C1=CC=C1[C@@]2(C)CC[C@@]2(C)[C@@H]3C[C@](C)(C(=O)O)CC[C@]3(C)CC[C@]12C [Celastrol] yielded an AUC ([1]; BT-549) of 0.82, a GRmax ([1]; BT-549) of −0.51 and an IC50 ([1]; Homo sapiens, BT-549, 24 h) of 1.3 µM. It also gave an IC50 ([1]; Homo sapiens, BT-549, 24 h, read-out: GR50 (µM)) of 1.5 µM, an AUC ([2]; HCC1806) of 0.81 and a GRmax ([2]; HCC1806) of −0.82. The IC50 ([2]; Homo sapiens, HCC1806, 24 h) was 2.1 µM, the IC50 ([2]; Homo sapiens, HCC1806, 24 h, read-out: GR50 (µM)) was 3.4 µM and the AUC ([3]; HCC38) was 0.79. For the same molecule, the GRmax ([3]; HCC38) was −0.96, the IC50 ([3]; Homo sapiens, HCC38, 24 h) was 1.4 µM and the IC50 ([3]; Homo sapiens, HCC38, 24 h, read-out: GR50 (µM)) was 1.2 µM. It also gave an AUC ([4]; HCC70) of 0.82, a GRmax ([4]; HCC70) of −0.98 and an IC50 ([4]; Homo sapiens, HCC70, 24 h) of 1.8 µM. For the same molecule, the IC50 ([4]; Homo sapiens, HCC70, 24 h, read-out: GR50 (µM)) was 1.2 µM, the IC50 ([5]; Homo sapiens, 24 h) was 1.6 µM and the IC50 ([5]; Homo sapiens, 24 h, read-out: GR50 (µM)) was 1.8 µM. For the same molecule, the AUC ([5]; 24 h) was 0.81, the IC50 ([6]; Homo sapiens, MCF7, 24 h) was 2.8 µM and the IC50 ([6]; Homo sapiens, MCF7, 24 h, read-out: GR50 (µM)) was 3.3 µM. For the same molecule, the AUC ([6]; MCF-7) was 0.89, the GRmax ([6]; MCF-7) was −0.30 and the IC50 ([7]; Homo sapiens, MDA-MB-436, 24 h) was 3.2 µM. For the same molecule, the IC50 ([7]; Homo sapiens, MDA-MB-436, 24 h, read-out: GR50 (µM)) was 2.4 µM, the AUC ([7]; MDA-MB-436) was 0.85 and the GRmax ([7]; MDA-MB-436) was −0.63. It also gave an IC50 ([8]; Homo sapiens, MDA-MB-453, 24 h) of 3.7 µM, an IC50 ([8]; Homo sapiens, MDA-MB-453, 24 h, read-out: GR50 (µM)) of 3.4 µM and an AUC ([8]; MDA-MB-453) of 0.87. The IC50 ([9]; Homo sapiens, MDA-MB-468, 24 h) was 1 µM, the IC50 ([9]; Homo sapiens, MDA-MB-468, 24 h, read-out: GR50 (µM)) was 0.75 µM and the AUC ([9]; MDA-MB-468) was 0.75. For the same molecule, the “cytotoxic effect at the highest dose” value [10] was “cytotoxic”.
